Assay results taken from patent US10273226B2, “Pyrazolyl-heteroarylamides as pesticides” (Bayer Animal Health GmbH, priority 2014, dated 2019).

How the values were obtained:
Assay type in all cases: in vivo
[1] = tested on: Musca domestica; test: Musca domestica test; conditions: application rate 100 ppm; adult houseflies; after 2 days
Method in brief: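 First, 10 mg compound was taken up in 0.5 ml DMSO and then brought with water to the required concentration. This was applied with sugar solution to a sponge in vessels holding 10 adult flies; kill was assessed after 2 days.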

[2] = tested on: Boophilus microplus Parkhurst strain, SP-resistant; test: Boophilus microplus dip test; conditions: application rate 100 ppm, assessed after 7 days
Protocol: Boophilus microplus—Dip Test
Test animals: cattle ticks (Boophilus microplus) Parkhurst strain, SP-resistant
(§1) Solvent: dimethyl sulphoxide
10 mg of active ingredient are dissolved in 0.5 ml of dimethyl sulphoxide. For the purpose of producing a suitable formulation, the active ingredient solution is diluted with water to the concentration desired in each case.
This active ingredient formulation is pipetted into tubes. 8-10 adult engorged female cattle ticks (Boophilus microplus) are transferred into a further tube with holes. The tube is immersed into the active ingredient formulation, and all the ticks are completely wetted. After the liquid has run out, the ticks are transferred on filter discs into plastic dishes and stored in a climate-controlled room.
Efficacy is assessed after 7 days by laying of fertile eggs. Eggs which are not visibly fertile are stored in a climate-controlled cabinet until the larvae hatch after about 42 days. An efficacy of 100% means that none of the ticks has laid any fertile eggs; 0% means that all the eggs are fertile.

[3] = tested on: Ctenocephalides felis; test: Ctenocephalides felis oral test; conditions: application rate 100 ppm in citrated cattle blood; after 2 days
Method in brief: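 Steps: active ingredient dissolved in dimethyl sulphoxide; blood dilution prepared; fleas (about 20, unfed adults) held in gauze-closed chamber beneath a cylinder of treated blood; feeding via parafilm; kill percentage determined after 2 days.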

[4] = tested on: Tetranychus urticae; test: Tetranychus urticae spray test, OP-resistant; conditions: application rate 100 g/ha; after 6 days
Method in brief: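 Percent kill is assessed 6 days after spraying infested Phaseolus vulgaris leaf discs, with all mite stages present. Compound is applied as a solvent/emulsifier aqueous formulation at the desired concentration.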

[5] = tested on: Spodoptera frugiperda; test: Spodoptera frugiperda spray test; conditions: application rate 100 g/ha; caterpillars; after 7 days
Method in brief: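 Percent kill of armyworm caterpillars was scored 7 days after they were placed on dried, sprayed Zea mays leaf discs. Spray solutions were made by dissolving active ingredient in solvent and diluting with 1000 ppm emulsifier water.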

[6] = tested on: Boophilus microplus; test: Boophilus microplus injection test; conditions: application rate 20 μg/animal; injection into abdomen; assessed after 7 days
Method in brief: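 DMSO formulation, 1 μl intra-abdominal injection, n=5 engorged adult females; climate-controlled room; score fertile eggs d7, unclear eggs held until larval hatch (~42 d); % efficacy, 100% = no fertile eggs.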

[7] = tested on: Ctenocephalides felis; test: Ctenocephalides felis in vitro contact test with adult cat fleas; conditions: application rate 5 μg/cm^2 (500 g/ha); after 48 h; fleas dead or moribund
Method in brief: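 Adult Ctenocephalides felis (5-10 per tube) were held 48 h at room temperature in tubes whose inner walls carried dried active ingredient, e.g. 5 μg/cm^2 from a 900 ppm acetone coating. Percent efficacy reflects fleas motionless or uncoordinated after being knocked to the tube base.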

[8] = tested on: Amblyomma hebraeum; test: Amblyomma hebraeum test (tick nymphs, immersion); conditions: application rate 100 ppm; tick nymphs immersed one minute; after 42 days
Protocol: as §1
To produce an appropriate active ingredient formulation, 10 mg of active ingredient are mixed with 0.5 ml of dimethyl sulphoxide, and the concentrate is diluted with water to the desired concentration.
Tick nymphs (Amblyomma hebraeum) are placed into perforated plastic cups and immersed in the desired concentration for one minute. The ticks are transferred on filter paper into a Petri dish and stored in a climate-controlled cabinet.
After 42 days, the kill in % is determined. 100% means that all of the ticks have been killed; 0% means that none of the ticks have been killed.

[9] = tested on: Myzus persicae; test: Myzus persicae spray test; conditions: application rate 100 g/ha; after 6 days
Method in brief: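 Efficacy, as % of aphids killed (0-100%), was scored 6 days after spraying. Test solutions were made in solvent diluted with water containing 1000 ppm emulsifier. They were sprayed onto Brassica pekinensis leaf discs carrying mixed-stage Myzus persicae.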

[10] = tested on: Lucilia cuprina; test: Lucilia cuprina test; conditions: application rate 100 ppm; L1 larvae; after 2 days
Method in brief: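 Mortality read at 2 days as percent larvae killed (100% = all, 0% = none). Test used roughly 20 first-instar larvae on minced horsemeat dosed with water-diluted DMSO formulation of compound.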

[11] = tested on: Phaedon cochleariae; test: Phaedon cochleariae spray test; conditions: application rate 100 g/ha; larvae; after 7 days
Method in brief: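 Mortality of Phaedon larvae, in %, was read 7 days after release onto sprayed, dried Brassica pekinensis leaf discs. Test dilutions were prepared in water with 1000 ppm emulsifier. A score of 0% means no larvae died and 100% means all were killed.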

[12] = tested on: Rhipicephalus sanguineus; test: Rhipicephalus sanguineus in vitro contact test with adult brown dog ticks; conditions: application rate 5 μg/cm^2 (500 g/ha); after 48 h; ticks dead or moribund
Method in brief: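 Test tubes (25 ml) were coated by dissolving active ingredient in acetone p.a., diluting to the required concentration, and spreading 250 μl over the inner walls and base on an orbital shaker at 30 rpm for 2 h. Once dry, 5-10 adult Rhipicephalus sanguineus were added, and tubes were capped with perforated lids and kept horizontal in darkness at room temperature. At 48 h, ticks were knocked down and heated at 45-50° C. for up to 5 min. Those unable to climb away were counted dead or moribund, and efficacy ran from 0% to 100%.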

Compound | efficacy (kill in %) [1] | efficacy (laying of fertile eggs) [2] | efficacy (kill in %) [3] | efficacy [4] | efficacy [5] | efficacy (laying of fertile eggs) [6] | efficacy [7] | efficacy (kill in %) [8] | efficacy [9] | efficacy (kill in %) [10] | efficacy [11] | efficacy [12]
Cn1nc(C(F)(F)C(F)(F)F)c(C(F)(F)F)c1-n1cc(-c2ccc(F)c(NC(=O)c3ccncc3)c2)cn1 [Example 1-025] | 100% | 100% | 100% | 100% | 100% | 100% | 100% | 100% | 100% | 100% | 100% | 100%
Cc1ccc(-c2cnn(-c3c(C(F)(F)F)c(C(F)(F)C(F)(F)F)nn3C)c2)cc1NC(=O)c1ccncc1 [Example 1-040] | 100% | 100% | 100% | 100% | 100% | 100% | 100% | 100% | 100% | 100% | 100% | 100%
Cc1cc(C(=O)Nc2cc(-c3cnn(-c4c(C(F)(F)F)c(C(F)(F)C(F)(F)F)nn4C)c3)ccc2F)ccn1 [Example 1-087] | 100% | 100% | 100% | 100% | 100% | 100% | 100% | 90% | 90% | 100% | 100% | 80%
